Values joined by “and” are separate entries in the source; they are usually repeats but may differ in a detail not shown here. Equal entries are not always repeated.

For one data set, the system named is aSYN. Nature of the data set: aSYN in enteric nervous system of transgenic PD mice. The class given is in vivo. As to conditions: PAC-Tg(SNCAA53T) mice, 21 weeks. The procedure: In Example 6, the effect of Posiphen on mice homozygous for the PAC-Tg(SNCAA53T) transgene was tested over the course of 21 weeks.
Data set [1] concerns neurotoxic aggregating proteins. The data set is described as follows: Translation of neurotoxic aggregating proteins in healthy mouse brain. The class given is in vivo. From the text: Therefore, the original data concerning the effects of Posiphen working under all conditions is wrong. It only works in stressed cells, dividing cells and sick cells, e.g., those cells that have high levels of iron.

For data set [2] the following is noted: cited from earlier work.
The target of data set [3] is T1, IRP1/H-Ferritin RNA complex (Homo sapiens, UniProt P21399).
T1 sequence (P21399 1-889): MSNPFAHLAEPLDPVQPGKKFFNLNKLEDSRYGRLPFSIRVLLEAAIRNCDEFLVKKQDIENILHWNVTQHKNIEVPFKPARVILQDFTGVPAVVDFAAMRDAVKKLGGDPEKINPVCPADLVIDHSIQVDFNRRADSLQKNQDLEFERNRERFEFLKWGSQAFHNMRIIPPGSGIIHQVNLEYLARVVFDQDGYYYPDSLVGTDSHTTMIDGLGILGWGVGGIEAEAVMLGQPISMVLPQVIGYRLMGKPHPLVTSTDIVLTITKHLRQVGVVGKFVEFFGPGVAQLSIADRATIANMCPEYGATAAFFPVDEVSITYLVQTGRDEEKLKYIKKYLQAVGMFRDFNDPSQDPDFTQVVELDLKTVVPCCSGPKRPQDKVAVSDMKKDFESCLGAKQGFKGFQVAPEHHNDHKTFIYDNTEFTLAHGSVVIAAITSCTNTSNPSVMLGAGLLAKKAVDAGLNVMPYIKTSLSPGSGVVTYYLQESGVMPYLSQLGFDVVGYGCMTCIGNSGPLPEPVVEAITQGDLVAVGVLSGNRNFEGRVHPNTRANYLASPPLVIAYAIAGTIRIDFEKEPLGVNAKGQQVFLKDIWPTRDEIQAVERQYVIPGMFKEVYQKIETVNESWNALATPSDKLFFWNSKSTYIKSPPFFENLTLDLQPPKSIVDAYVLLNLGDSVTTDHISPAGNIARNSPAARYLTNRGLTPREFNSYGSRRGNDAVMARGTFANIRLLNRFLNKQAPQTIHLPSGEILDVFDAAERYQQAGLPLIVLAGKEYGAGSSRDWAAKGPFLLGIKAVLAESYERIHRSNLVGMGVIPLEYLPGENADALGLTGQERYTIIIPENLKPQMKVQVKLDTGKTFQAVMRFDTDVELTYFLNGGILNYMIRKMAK
The data set is described as follows: MST binding of Posiphen to IRP1/H-Ferritin RNA complex. As to conditions: IRP1/H-Ferritin 2, 250 nM; Posiphen tartrate. The procedure:
(§1) Microscale thermophoresis (MST) binding experiments were done to assess binding in vitro between the different components. MST binding experiments were performed by incubating N-termini labeled protein (2 nM) with serial 2-fold dilutions of IRE RNAs, H-Ferritin ([…]) or APP ([…]) for 10 min in incubation buffer (Tris pH 7.4, 0.5%, 15 mM NaCl and 0.1% Prionex). IPR-1 was N-termini labeled with RED-NHS amino reactive labeling kit (NanoTemper Technologies, Germany). For determination of Posiphen binding, reactions containing IPR1 (2 nM), IRP1/H-Ferritin (2, 250 nM), or IRP1/APP (2, 600 nM) were incubated for 10 min with 2-fold dilutions of Posiphen tartrate. After incubation, samples were centrifuged at 13,000 rpm for 2 minutes before being loaded into standard capillaries provided by the manufacturer. Fluorescence values from the binding reactions were determined using the Monolith NT.115 (Nano Temper Technologies). Kd values were using the NanoTemper Technologies software. Conditions were standardized.

The target of a further data set is T2, IRP1/APP RNA complex (Homo sapiens, UniProt P21399).
T2 sequence (P21399 1-889): T1 sequence (P21399 1-889)
The data set is described as follows: MST binding of Posiphen to IRP1/APP RNA complex. As to conditions: IRP1/APP 2, 600 nM; Posiphen tartrate; read-out: Kd, binding of Posiphen to APP IRE/IRP1 complex. The procedure:
as §1

The next data set relates to retinal neurons. The data set is described as follows: Acute glaucoma in rats, retinal cell death. The conditions noted are these: acute glaucoma by raised intraocular pressure. In kind it is in vivo. From the text:
When acute glaucoma is induced by increasing the pressure in an eye, the retina gets destroyed. In Example 10, acute glaucoma was induced in rats by increasing intraocular pressure by micro-injection of saline into the anterior chamber. This induces large amounts of apoptotic cell death in the retina. There are twice as many dead cells in high pressure retinas of rats treated with vehicle versus control untreated rats. Posiphen rescued 72% of the retinal neurons. The results are depicted in FIG. 23. Administration of Posiphen to those rats preserves the retina and protects the retinal cells from dying.

A further data set deals with SNCA. The conditions noted are these: cited from earlier work.
The target of the next data set is T3, IRP1 (Homo sapiens, UniProt P21399).
T3 sequence (P21399 1-889): T1 sequence (P21399 1-889)
Nature of the data set: Microscale thermophoresis (MST) binding of IRE RNAs to IRP1. The conditions noted are these: cell free, labeled IRP1 2 nM, without Posiphen; read-out: Kd of IRE RNA binding to IRP1. The procedure:
as §1
On the technique in general: Microscale thermophoresis detects binding through changes in fluorescence in a small temperature gradient.

`CN1CC[C@]2(C)c3cc(OC(=O)Nc4ccccc4)ccc3N(C)C12` (stereo partly drawn) [Posiphen, (3aR)-1,3a,8-trimethyl-1,2,3,3a,8,8a-hexahydropyrrolo[2,3-b]indol-5-ylphenylcarbamate]: the “inhibition of aSYN in enteric nerves” value in the data set with aSYN is “about 40%”. Also, the “translation of neurotoxic aggregating proteins” value in data set [1] is “does not inhibit”. Moreover, the tolerability result in data set [2] (doses up to 4×60 mg daily×10 days, humans) was “well tolerated”. Besides, the “terminal half-life in plasma” value in data set [2] (human, all doses) is 4.3 to 4.7 h. For the same molecule, the “binding of Posiphen to the IRP1/H-Ferritin RNA complex” value in data set [3] is recorded as “no binding”. In addition, on IRP1/APP RNA complex, the Kd is 3.2 nM and 3.22 nM. The retinal neurons rescued with retinal neurons was 72%.
In the case of `C[C@]12CC[C@H]3[C@@H](CC[C@]4(O)C[C@@H](O)CC[C@]34C=O)[C@@]1(O)CC[C@@H]2C1=CC(=O)OC1` [strophanthidine], the “SNCA expression in neural cells, Western blotting” value in the data set on SNCA is on record as “selectively blocked”.
“APP: APP IRE RNA oligo GGUGGCGGCGCGGGCAGAGCAAGGACGCGGCGGAU (RNA, backbone not given here)”: the Kd with IRP1 is 225 nM.
As to “H-Ferritin: H-Ferritin IRE RNA oligo GGGGUUUCCUGCUUCAACAGUGCUUGGACGGAACC (RNA, backbone not given here)”, the Kd with IRP1 turned out to be 88.5 nM.
